Test results taken from the supplement of paper PMC10307832.

Key:
Assay in all cases: relative viability (nuclei count vs DMSO), 5 days (fraction); higher = more cells survive
Neratinib + Luminespib = compound: CCOc1cc2ncc(C#N)c(Nc3ccc(OCc4ccccn4)c(Cl)c3)c2cc1NC(=O)/C=C/CN(C)C [Neratinib] + CCNC(=O)c1noc(-c2cc(C(C)C)c(O)cc2O)c1-c1ccc(CN2CCOCC2)cc1 [Luminespib] (partner 0.01 µM)
Method in brief: (§1)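 Relative viability was taken as the ratio of nuclei in treated wells to nuclei in vehicle wells. Lung cancer cell lines in 1536-well plates received compounds by pin tool one day after seeding, either one drug alone or a fixed anchor-drug dose plus five library-drug doses (not always all listed) in √10 steps. Nuclei were counted on 4× images after 5 days of treatment, and values are medians of duplicate plates.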

Neratinib + Pictilisib = compound: CCOc1cc2ncc(C#N)c(Nc3ccc(OCc4ccccn4)c(Cl)c3)c2cc1NC(=O)/C=C/CN(C)C [Neratinib] + CS(=O)(=O)N1CCN(Cc2cc3nc(-c4cccc5[nH]ncc45)nc(N4CCOCC4)c3s2)CC1 [Pictilisib] (partner 1 µM)
Method in brief: as §1

Neratinib + Palbociclib = compound: CCOc1cc2ncc(C#N)c(Nc3ccc(OCc4ccccn4)c(Cl)c3)c2cc1NC(=O)/C=C/CN(C)C [Neratinib] + CC(=O)c1c(C)c2cnc(Nc3ccc(N4CCNCC4)cn3)nc2n(C2CCCC2)c1=O [Palbociclib] (partner 0.5 µM)
Method in brief: as §1

Neratinib + OSI-027 = compound: CCOc1cc2ncc(C#N)c(Nc3ccc(OCc4ccccn4)c(Cl)c3)c2cc1NC(=O)/C=C/CN(C)C [Neratinib] + COc1cccc2cc(-c3nc([C@H]4CC[C@H](C(=O)O)CC4)n4ncnc(N)c34)[nH]c12 [OSI-027] (partner 0.5 µM)
Method in brief: as §1

Cell Line | relative viability (Neratinib + Luminespib; first compound 0.01 µM) | relative viability (Neratinib + Luminespib; first compound 0.03162 µM) | relative viability (Neratinib + Luminespib; first compound 0.1 µM) | relative viability (Neratinib + Luminespib; first compound 0.3162 µM) | relative viability (Neratinib + Luminespib; first compound 1 µM) | relative viability (Neratinib + Pictilisib; first compound 0.01 µM) | relative viability (Neratinib + Pictilisib; first compound 0.03162 µM) | relative viability (Neratinib + Pictilisib; first compound 0.1 µM) | relative viability (Neratinib + Pictilisib; first compound 0.3162 µM) | relative viability (Neratinib + Pictilisib; first compound 1 µM) | relative viability (Neratinib + Palbociclib; first compound 0.01 µM) | relative viability (Neratinib + Palbociclib; first compound 0.03162 µM) | relative viability (Neratinib + Palbociclib; first compound 0.1 µM) | relative viability (Neratinib + Palbociclib; first compound 0.3162 µM) | relative viability (Neratinib + Palbociclib; first compound 1 µM) | relative viability (Neratinib + OSI-027; first compound 0.01 µM) | relative viability (Neratinib + OSI-027; first compound 0.03162 µM) | relative viability (Neratinib + OSI-027; first compound 0.1 µM) | relative viability (Neratinib + OSI-027; first compound 0.3162 µM) | relative viability (Neratinib + OSI-027; first compound 1 µM)
A-427 | 1.23 | 0.966 | 0.778 | 1.02 | 0.274 | 0.952 | 0.738 | 0.773 | 0.675 | 0.62 | 0.554 | 0.576 | 0.565 | 0.488 | 0.513 | 0.487 | 0.499 | 0.467 | 0.332 | 0.218
COR-L 105 | 0.862 | 0.669 | 0.53 | 0.35 | 0.203 | 0.455 | 0.412 | 0.377 | 0.31 | 0.312 | 0.397 | 0.451 | 0.385 | 0.351 | 0.341 | 0.863 | 0.54 | 0.36 | 0.226 | 0.283
NCI-H460 | 0.0344 | 0.0284 | 0.0244 | 0.0268 | 0.0188 | 0.325 | 0.384 | 0.294 | 0.323 | 0.32 | 0.19 | 0.215 | 0.171 | 0.166 | 0.0933 | 0.61 | 0.891 | 0.596 | 0.419 | 0.0301
NCI-H2228 | 0.145 | 0.138 | 0.14 | 0.12 | 0.114 | 0.365 | 0.346 | 0.301 | 0.442 | 0.199 | 0.666 | 0.95 | 0.765 | 0.655 | 0.169 | 0.536 |  | 0.662 | 0.526 | 0.142
EBC-1 |  |  |  |  |  | 0.398 | 0.408 | 0.378 | 0.319 | 0.274 |  |  |  |  |  |  |  |  |  | 
HCC-44 | 1.29 | 1.23 | 0.989 | 1.07 | 0.524 | 0.852 | 0.561 | 0.655 | 0.642 | 0.643 | 1.02 | 0.969 |  | 0.926 | 0.966 | 0.723 | 0.655 | 0.648 | 0.505 | 0.548
SW 900 | 0.184 | 0.157 | 0.148 | 0.194 | 0.169 |  |  |  |  |  |  | 0.56 | 0.537 | 0.372 | 0.288 | 0.597 | 0.604 | 0.621 | 0.574 | 0.385
NCI-H1563 | 0.57 | 0.498 | 0.488 | 0.503 | 0.484 | 0.608 | 0.636 | 0.664 | 0.617 | 0.602 |  |  |  |  |  | 0.806 | 0.725 | 0.732 | 0.67 | 0.575
NCI-H1299 |  |  |  |  |  | 0.729 | 0.901 | 0.805 | 0.459 | 0.28 |  |  |  |  |  |  |  |  |  | 
NCI-H522 | 1.12 | 1.12 | 1.09 | 0.913 | 0.655 |  |  |  |  |  | 1.22 | 0.759 | 0.719 | 0.733 | 0.538 | 0.687 | 0.702 | 0.605 | 0.548 | 0.497
A549 |  |  |  |  |  | 0.608 | 0.409 | 0.526 | 0.323 | 0.119 |  |  |  |  |  |  |  |  |  | 
IA-LM |  |  |  |  |  | 0.33 | 0.318 | 0.193 | 0.197 | 0.126 |  |  |  |  |  |  |  |  |  | 
Calu-6 |  |  |  |  |  | 0.924 | 1.01 | 0.891 | 0.788 | 0.405 |  |  |  |  |  |  |  |  |  | 
